Measured values as given in patent US12077555B2, “STAT degraders and uses thereof” (Kymera Therapeutics, Inc., priority 2019, dated 2024).
Like-named read-outs stand apart in the source and are kept apart here.

Molecular target: STAT3 (Homo sapiens, UniProt P40763)
Experiment: STAT3 HiBiT degradation assay in transfected A549 cells
Type: cell-based
Set-up: expressed in transfected cells; host or cells: A549
Procedure, shortened: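 Degradation read as HiBiT-tagged STAT3 luminescence (Nano-Glo lytic reagent, 10 min, room temperature) following 24 h compound treatment of transfected A549 cells at 3-fold, 10 points. Percent remaining signal computed against controls and fitted with a four-parameter logistic; DC50 reported as letter bins (A <0.01 to D >1.0 µM).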

[1] = A549, 24 h; read-out: STAT3 HiBiT A549 degradation 24 h: Average external-Abs DC50

Sequence of STAT3 (P40763 whole entry): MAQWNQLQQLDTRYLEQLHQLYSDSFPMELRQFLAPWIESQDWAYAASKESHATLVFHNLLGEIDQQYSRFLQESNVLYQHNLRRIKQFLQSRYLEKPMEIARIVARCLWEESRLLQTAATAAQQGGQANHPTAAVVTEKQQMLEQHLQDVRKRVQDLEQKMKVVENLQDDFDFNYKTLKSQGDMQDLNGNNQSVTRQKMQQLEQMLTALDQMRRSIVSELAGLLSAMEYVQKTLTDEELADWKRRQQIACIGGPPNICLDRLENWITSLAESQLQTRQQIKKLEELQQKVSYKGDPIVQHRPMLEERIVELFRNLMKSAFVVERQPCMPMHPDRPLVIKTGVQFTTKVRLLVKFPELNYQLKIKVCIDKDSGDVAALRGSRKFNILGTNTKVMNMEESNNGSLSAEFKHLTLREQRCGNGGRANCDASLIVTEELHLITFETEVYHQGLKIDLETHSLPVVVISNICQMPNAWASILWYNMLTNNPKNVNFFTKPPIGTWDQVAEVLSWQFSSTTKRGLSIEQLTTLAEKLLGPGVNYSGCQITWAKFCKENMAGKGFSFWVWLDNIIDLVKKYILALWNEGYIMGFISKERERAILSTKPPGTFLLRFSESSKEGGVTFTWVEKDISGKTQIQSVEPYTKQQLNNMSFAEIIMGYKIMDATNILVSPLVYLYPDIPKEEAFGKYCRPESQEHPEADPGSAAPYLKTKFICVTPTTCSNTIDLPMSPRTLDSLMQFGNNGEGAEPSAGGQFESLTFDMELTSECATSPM

SMILES | DC50 [1] | DC50 (read-out: STAT3 HiBiT A549 degradation 24 h: Average external-Abs DC50; A549, 24 h)
Cc1cc(CCCC(=O)N[C@H](C(=O)N2C[C@H](O)C[C@H]2C(=O)N[C@@H](C)c2ccc(-c3scnc3C)cc2)C(C)(C)C)c(F)c(OC[C@H](CCC(N)=O)NC(=O)[C@@H]2Cc3cccc4c3N2C(=O)[C@@H](NC(=O)c2cc3cc(C(=O)P(=O)(O)O)ccc3[nH]2)CC4)c1 [Compound I-235, diammonium 2-[[(2S,11S)-2-[[(2S)-4-carbamoyl-1-[2-fluoro-3-(3-[[(2S)-1-[(2S,4R)-4-hydroxy-2-[[(1S)-1-[4-(4-methyl-1,3-thiazol-5-yl)phenyl]ethyl]carbamoyl]pyrrolidin-1-yl]-3,3-dimethyl-1-oxobutan-2-yl]carbamoyl]propyl)-5-methyl-phenoxy]butan-2-yl]carbamoyl]-12-oxo-1-azatricyclo[6.4.1.0^[4,13]]trideca-4(13),5,7-trien-11-yl]carbamoyl]-1H-indole-5-carbonylphosphonate] | > 1000 nM | –
CC(=O)N1CC[C@H]2CC[C@@H](C(=O)N[C@@H](CCC(N)=O)COc3cc(C)cc(CCCCC(=O)N[C@H](C(=O)N4C[C@H](O)C[C@H]4C(=O)N[C@@H](C)c4ccc(-c5scnc5C)cc4)C(C)(C)C)c3F)N2C(=O)[C@@H](NC(=O)c2cc3cc(C(=O)P(=O)(O)O)ccc3[nH]2)C1 [Compound I-236, diammonium 2-[[(5S,8S,10aR)-3-acetyl-8-[[(2S)-4-carbamoyl-1-[2-fluoro-3-(4-[[(2S)-1-[(2S,4R)-4-hydroxy-2-[[(1S)-1-[4-(4-methyl-1,3-thiazol-5-yl)phenyl]ethyl]carbamoyl]pyrrolidin-1-yl]-3,3-dimethyl-1-oxobutan-2-yl]carbamoyl]butyl)-5-methylphenoxy]butan-2-yl]carbamoyl]-6-oxo-octahydropyrrolo[1,2-a][1,5]diazocin-5-yl]carbamoyl]-1H-indole-5-carbonylphosphonate] | – | 100 to 1000 nM
Cc1ncsc1-c1ccc([C@H](C)NC(=O)[C@@H]2C[C@@H](O)CN2C(=O)[C@@H](NC(=O)CCCCc2ccc(CCC[C@H](CCC(N)=O)NC(=O)[C@@H]3Cc4cccc5c4N3C(=O)[C@@H](NC(=O)c3cc4cc(C(=O)P(=O)(O)O)ccc4[nH]3)CC5)cc2)C(C)(C)C)cc1 [Compound I-237, diammonium 2-[[(2S,11S)-2-[[(3R)-1-carbamoyl-6-[4-(4-[[(2S)-1-[(2S,4R)-4-hydroxy-2-[[(1S)-1-[4-(4-methyl-1,3-thiazol-5-yl)phenyl]ethyl]carbamoyl]pyrrolidin-1-yl]-3,3-dimethyl-1-oxobutan-2-yl]carbamoyl]butyl)phenyl]hexan-3-yl]carbamoyl]-12-oxo-1-azatricyclo[6.4.1.0^[4,13]]trideca-4(13),5,7-trien-11-yl]carbamoyl]-1H-indole-5-carbonylphosphonate] | 10 to 100 nM | –
Cc1ncsc1-c1ccc([C@H](C)NC(=O)[C@@H]2C[C@@H](O)CN2C(=O)[C@@H](NC(=O)CCCCCc2ccc([C@H](CCC(N)=O)NC(=O)[C@@H]3Cc4cccc5c4N3C(=O)[C@@H](NC(=O)c3cc4cc(C(=O)P(=O)(O)O)ccc4[nH]3)CC5)nc2)C(C)(C)C)cc1 [Compound I-238] | 100 to 1000 nM | –
Cc1ncsc1-c1ccc([C@H](C)NC(=O)[C@@H]2C[C@@H](O)CN2C(=O)[C@@H](NC(=O)CCCCc2cccc(OC[C@H](CCC(N)=O)NC(=O)[C@@H]3CCCN3C(=O)[C@H](CC(C)C)NC(=O)c3cc4cc(C(=O)P(=O)(O)O)ccc4[nH]3)c2Cl)C(C)(C)C)cc1 [Compound I-239, diammonium 2-[[(2S)-1-[(2S)-2-[[(2S)-4-carbamoyl-1-[2-chloro-3-(4-[[(2S)-1-[(2S,4R)-4-hydroxy-2-[[(1S)-1-[4-(4-methyl-1,3-thiazol-5-yl)phenyl]ethyl]carbamoyl]pyrrolidin-1-yl]-3,3-dimethyl-1-oxobutan-2-yl]carbamoyl]butyl)phenoxy]butan-2-yl]carbamoyl]pyrrolidin-1-yl]-4-methyl-1-oxopentan-2-yl]carbamoyl]-1H-] | < 10 nM | –
Cc1ncsc1-c1ccc([C@H](C)NC(=O)[C@@H]2C[C@@H](O)CN2C(=O)[C@@H](NC(=O)CCCc2cccc(OC[C@H](CCC(N)=O)NC(=O)[C@@H]3CCCN3C(=O)[C@H](CC(C)C)NC(=O)c3cc4cc(C(=O)P(=O)(O)O)ccc4[nH]3)c2Cl)C(C)(C)C)cc1 [Compound I-240] | 10 to 100 nM | –
